Assay results from ChEMBL document CHEMBL5579827, “Discovery of orally bioavailable phenyltetrazolium derivatives for the acute treatment and the secondary prevention of ischemic stroke” (Eur J Med Chem, 2024).

Experiments:
[1] = system: N2a; experiment: Neuroprotective activity against OGD/R induced cell injury in mouse N2a cells assessed as cell viability at 10 uM preincubated under hypoxic condition for 2 hrs and measured after 24 hrs (reference value: 28.66 to 30.22 %); format: functional; conditions: time 26 hrs, read-out: Activity
[2] = system: Mus musculus; experiment: Neuroprotective activity against tMCAO-reperfusion induced brain injury in SPF C57 mouse model assessed as reduction in infarct volume at 10 mg/kg, iv measured after 24 hrs; format: functional; set-up: scale not given: the % may be the effect or the level left
[3] = system: N2a; experiment: Neuroprotective activity against OGD/R induced cell injury in mouse N2a cells assessed as decrease in apoptotic ratio at 10 uM incubated for 24 hrs; format: functional; set-up: scale not given: the % may be the effect or the level left
[4] = AUC(0 to t) in Sprague-Dawley rat at 10 mg/kg, po measured upto 8 hrs by LC-MS/MS analysis; format: ADME, organism-based; conditions: in vivo
[5] = Tmax in Sprague-Dawley rat at 10 mg/kg, po measured upto 8 hrs by LC-MS/MS analysis; format: ADME, organism-based; conditions: Sprague-Dawley, in vivo, read-out: Tmax

SMILES: CCCCC1OC(=O)c2ccccc21 (stereo not drawn) [RAC-3-N-BUTYLPHTHALIDE]
- viability at 10 µM [1]: 36.6%
- Activity [2]: 25.43%
- Activity [3]: 130.83%

SMILES: CCCC(O)c1ccccc1-c1nn[nH]n1 (centres undefined)
- viability at 10 µM [1]: 35.6%

SMILES: CCCC(O)c1ccc(C2=CCCCC2)cc1-c1nn[nH]n1 (centres undefined)
- viability at 10 µM [1]: 39.1%

SMILES: CCCCC(O)c1ccc(F)cc1-c1nn[nH]n1 (centres undefined)
- viability at 10 µM [1]: 35.1%
- AUC(0-t) at 8 h [4]: 2670 ng·h/mL
- Tmax [5]: 15 min

SMILES: CCCCC(O)c1ccccc1-c1cccs1 (centres undefined)
- viability at 10 µM [1]: 35.4%

SMILES: CCCCC(O)c1ccc(Br)cc1-c1nnn(C2CC2)n1 (centres undefined)
- viability at 10 µM [1]: 50.6%

SMILES: CCCCC(O)c1ccccc1-c1ccc[nH]1 (centres undefined)
- viability at 10 µM [1]: 38.6%

SMILES: CCCCC(O)c1ccc(Cl)cc1-c1nn[nH]n1 (centres undefined)
- viability at 10 µM [1]: 27.5%
- AUC(0-t) at 8 h [4]: 2670 ng·h/mL
- Tmax [5]: 15 min
